Laboratory results as given in ChEMBL document CHEMBL4610027, “Identification of Mycobacterium tuberculosis CtpF as a target for designing new antituberculous compounds” (Bioorg Med Chem, 2020).
Converted amounts (≈) assume the structure as drawn. The source made the active and inactive calls. The rule behind the calls is not given here.

Experiments:
[1] = tested on: Mycobacterium tuberculosis; experiment: Antimycobacterial activity against Mycobacterium tuberculosis H37Rv incubated for 6 days by resazurin dye-based colorimetric method; type: functional; conditions: 144 h
[2] = Octanol/water partition coefficient, log P of the compound; type: physicochemical
[3] = tested on: Mycobacterium tuberculosis; experiment: Potency index, ratio of CPA MIC to test compound MIC for Mycobacterium tuberculosis H37Rv; type: functional
[4] = (§1) Inhibition of calcium stimulated Mycobacterium tuberculosis H37Ra CtpF ATPase activity using Na2ATP as substrate preincubated for 30 mins followed by substrate addition and measured after 30 mins by colorimetric analysis
[5] = Cytotoxicity against mouse MHS cells assessed as cell death at 100 ug/ml incubated for 48 hrs by crystal violet staining based spectrophotometric analysis relative to control
[6] = Hemolytic activity against human erythrocytes assessed as hemolysis at 100 ug/ml incubated for 2 hrs by spectrophotometric analysis; type: ADME, cell-based, Erythrocyte; conditions: read-out: Activity
[7] = tested on: Mycobacterium tuberculosis; experiment: Antimycobacterial activity against Mycobacterium tuberculosis H37Rv assessed as inhibition of bacterial growth at MIC incubated for 21 days by colony formation assay relative to control; type: functional
[8] = Inhibition of Bacillus cereus Ca2+ ATPase
[9] = tested on: Listeria monocytogenes; experiment: Inhibition of Listeria monocytogenes Ca2+ ATPase
[10] = tested on: Mycobacterium tuberculosis H37Ra; experiment: as §1
[11] = tested on: Mycobacterium tuberculosis H37Ra; experiment: Inhibition of calcium stimulated Mycobacterium tuberculosis H37Ra CtpF ATPase activity at 100 uM using Na2ATP as substrate preincubated for 30 mins followed by substrate addition and measured after 30 mins by colorimetric analysis relative to control

| SMILES | MIC [1] | logP [2] | Ratio [3] | IC50 [4] | Activity [5] | hemolysis at 2 h, 100 ug/ml [6] | inhibition (INH) [7] | IC50 [8] | INH [9] | inhibition [10] | inhibition [11] | inhibition [7] |
| --- | --- | --- | --- | --- | --- | --- | --- | --- | --- | --- | --- | --- |
| COCC(=O)Nc1c(C(=O)OC)n(CCC(C)C)c2ncc(N[C@@H](C)C(C)(C)O)cc12 | 50 µg/mL (≈ 115 µM) | 3.32 | 0.5 | 8 µM | 19.8% | 0.6% | 60.7% |  |  |  |  |  |
| CC(=O)C1=C(O)[C@@H]2[C@H]3c4c[nH]c5cccc(c45)C[C@H]3C(C)(C)N2C1=O [CYCLOPIAZONIC ACID] | 100 µg/mL (≈ 297 µM) | 2.21 |  | 7.2 µM | 50.8% | 6.6% | 29.9% | 4 µM | 918 µM | Dose-dependent effect |  |  |
| NS(=O)(=O)[C@H]1CC=C(CNC(=O)CCCc2c[nH]c3ccccc23)S1 | 50 µg/mL (≈ 132 µM) | 1.68 | 0.5 | 4.4 µM | 12.9% | 2% | 64% |  |  |  | 44.9% |  |
| O=C(CCCC[C@@H]1SC[C@@H]2NC(=O)N[C@@H]21)NCc1cn(-c2ccccc2)nc1-c1ccccc1 | 100 µg/mL (≈ 210 µM) | 3.34 |  | 4.1 µM | 30% | 2.4% | 29.5% |  |  |  | 48.2% |  |
| CCC[C@H](C)NC(=O)CSc1nc2cc(S(=O)(=O)Nc3ccccc3OC)ccc2o1 | > 200 µg/mL | 4.08 |  | 35.9 µM | 39.5% | 1% |  |  |  |  |  | inactive |
| C[C@@H](OC(=O)CCCNC1=NS(=O)(=O)c2ccccc21)C(=O)c1c[nH]c2ccccc12 | 100 µg/mL (≈ 228 µM) | 1.82 |  | 11.8 µM | 31.6% | 2.1% | 37.3% |  |  |  |  |  |
| CCCCC(=O)Nc1cccc(C(=O)NCCCNc2cccnc2)c1 | 100 µg/mL (≈ 282 µM) | 2.91 |  | 4.2 µM | 21.4% | 1.2% | 52.9% |  |  |  | 46.9% |  |
